18 compounds from ChEMBL document CHEMBL5053545, “Iterative Structure-Based Optimization of Short Peptides Targeting the Bacterial Sliding Clamp” (J Med Chem, 2021) can be followed below.

*1 amine or outer side, *2 acyl side, *3 side chain or, on linkers, in order; H or OH if unused. Where a SMILES comes first, the peptide text is derived from it. [ ]: non-standard residue; d: D form. The star is where a group is joined. N(3-imidazol-1-ylpropyl)Gly = O=C(O)CNCCCn1ccnc1; ACHC(1S,2S) = O=C([C@H]1CCCC[C@@H]1N[*:1])[*:2]; Acryloyl(3-(3-pyridyl),E) = O=C(/C=C/c1cccnc1)*; Gly(N-3-morpholinopropyl) = O=C(O)CNCCCN1CCOCC1; Phe(3,4-Cl2) = N[C@@H](Cc1ccc(Cl)c(Cl)c1)C(=O)O; Caffeoyl = O=C(/C=C/c1ccc(O)c(O)c1)*; X6 = O=C([C@@H]1CC(O)CN1[*:1])[*:2]; NH(4-MeO-phenyl) = COc1ccc(N*)cc1; NMeR = CN[C@@H](CCCNC(=N)N)C(=O)O; X2 = O=C(CN(Cc1ccccn1)[*:1])[*:2]; tBuAla = CC(C)(C)C[C@H](N)C(=O)O; Cha = N[C@@H](CC1CCCCC1)C(=O)O; NMeD = CN[C@@H](CC(=O)O)C(=O)O; Phe(ol) = N[C@H](CO)Cc1ccccc1; X4 = NC[C@H](Cc1ccccc1)N*; CO = O=C([*:1])[*:2]

Experiment [1] in a line: Binding affinity to Escherichia coli sliding clamp assessed as dissociation constant by ITC analysis. For orientation: In ITC the heat of successive injections is recorded.
For experiment [2], the system named is Escherichia coli. Put plainly: Binding affinity to Escherichia coli sliding clamp assessed as gibbs free energy change by ITC analysis.
The test system of experiment [3] is Escherichia coli. Put plainly: Binding affinity to Escherichia coli sliding clamp assessed as association rate constant by ITC analysis.
Experiment [4] relates to Escherichia coli. Nature of the experiment: Binding affinity to Escherichia coli sliding clamp assessed as dissociation rate constant by ITC analysis.

On to `COc1ccc(NC(=O)N[C@@H](CCC(N)=O)C(=O)N[C@@H](CC2CCCCC2)C(=O)N(C)[C@@H](CC(=O)O)C(=O)N[C@@H](CC(C)C)C(=O)N[C@@H](Cc2ccc(Cl)c(Cl)c2)C(=O)O)cc1` ({NH(4-MeO-phenyl)-CO}-Q[Cha][NMeD]L[Phe(3,4-Cl2)]-OH), for which the dissociation constant (Kd) in experiment [1] came to 266 nM. Moreover, in the experiment with Escherichia coli [2], the deltaG was -9 kcal/mol. Moreover, the figures for the K in the experiment on Escherichia coli [3] and in the experiment with Escherichia coli [4] were 4.2 10^4/M/s and 1.1 10^-3/s, respectively.

For the compound `CC(=O)N(C)[C@@H](CCCNC(=N)N)C(=O)N[C@@H](CCC(N)=O)C(=O)N[C@@H](CC1CCCCC1)C(=O)N[C@@H](CC(=O)O)C(=O)N[C@@H](CC(C)C)C(=O)N[C@@H](Cc1ccccc1)C(=O)O` (Ac-[NMeR]Q[Cha]DLF-OH), in experiment [1], the Kd is 2130 nM. In the experiment on Escherichia coli [2], the deltaG is -7.7 kcal/mol. Moreover, the values for the K in the experiment on Escherichia coli [3] and with Escherichia coli [4] were 2.1 10^4/M/s and 2.9 10^-2/s, respectively.

For `CC(=O)N[C@@H](CCC(N)=O)C(=O)N[C@@H](CC1CCCCC1)C(=O)N[C@@H](CC(=O)O)C(=O)N[C@@H](CC(C)C)C(=O)NCC(=O)N[C@@H](CC(C)(C)C)C(=O)O` (Ac-Q[Cha]DLG[tBuAla]-OH), the Kd in experiment [1] worked out at 2690 nM. In addition, the deltaG with Escherichia coli [2] is -7.6 kcal/mol. Further, the results for the K in the experiment with Escherichia coli [3] and with Escherichia coli [4] were 1.1 10^4/M/s and 3 10^-2/s, respectively.

Regarding `CC(C)C[C@H](NC(=O)[C@H](CC(=O)O)NC(=O)[C@H](CC1CCCCC1)NC(=O)[C@H](CCC(N)=O)NC(=O)/C=C/c1ccc(O)c(O)c1)C(=O)N[C@@H](Cc1ccccc1)C(=O)O` (Caffeoyl-Q[Cha]DLF-OH), the Kd in experiment [1] is 99 nM. In the experiment on Escherichia coli [2], the deltaG was -9.5 kcal/mol. Moreover, the K in the experiment with Escherichia coli [3] was 4.6 10^4/M/s; with Escherichia coli [4], 4.7 10^-3/s.

With `CC(=O)N[C@@H](CCC(N)=O)C(=O)N[C@@H](CC1CCCCC1)C(=O)N[C@@H](CC(=O)O)C(=O)N[C@@H](CC(C)C)C(=O)N[C@H]1CCCC[C@@H]1C(=O)N[C@@H](CC(C)C)C(=O)O` (Ac-Q[Cha]DL[ACHC(1S,2S)]L-OH), in experiment [1], the Kd is 4070 nM. For the same compound, the deltaG in the experiment on Escherichia coli [2] is -7.4 kcal/mol. For the same compound, the K is 7.4 10^4/M/s in the experiment with Escherichia coli [3] and 2.9 10^-2/s in the experiment on Escherichia coli [4].

In the case of `CC(C)C[C@H](NC(=O)[C@H](CC(=O)O)NC(=O)[C@H](CC1CCCCC1)NC(=O)[C@H](CCC(N)=O)NC(=O)CNCCCN1CCOCC1)C(=O)N[C@@H](Cc1ccccc1)C(=O)O` (H-[Gly(N-3-morpholinopropyl)]Q[Cha]DLF-OH), the Kd in experiment [1] amounted to 796 nM. Moreover, the deltaG in the experiment on Escherichia coli [2] was -8.3 kcal/mol. The K in the experiment on Escherichia coli [3] is 1.8 10^4/M/s; in the experiment on Escherichia coli [4], 1.4 10^-2/s.

`CC(=O)N[C@@H](CCC(N)=O)C(=O)N[C@@H](CC1CCCCC1)C(=O)N(C)[C@@H](CC(=O)O)C(=O)N[C@@H](CC(C)C)C(=O)N[C@@H](Cc1ccccc1)C(=O)O` (Ac-Q[Cha][NMeD]LF-OH): the Kd in experiment [1] was 114 nM. Besides, in the experiment on Escherichia coli [2], the deltaG is -9.5 kcal/mol. The K in the experiment with Escherichia coli [3] was 2.1 10^4/M/s; in the experiment on Escherichia coli [4] it was 1.9 10^-2/s.

On to `CC(=O)N[C@@H](CCCNC(=N)N)C(=O)N[C@@H](CCC(N)=O)C(=O)N[C@@H](CC1CCCCC1)C(=O)N(C)[C@@H](CC(=O)O)C(=O)N[C@@H](CC(C)C)C(=O)N[C@@H](Cc1ccc(Cl)c(Cl)c1)C(=O)O` (Ac-RQ[Cha][NMeD]L[Phe(3,4-Cl2)]-OH), for which the Kd in experiment [1] came to 278 nM. Also, the deltaG in the experiment on Escherichia coli [2] is -8.9 kcal/mol. Besides, the K with Escherichia coli [3] was 7.6 10^4/M/s; with Escherichia coli [4], 2.1 10^-2/s.

With `CC(=O)N[C@@H](CCC(N)=O)C(=O)N[C@@H](CC1CCCCC1)C(=O)N[C@@H](CC(=O)O)C(=O)N[C@@H](CC(C)C)C(=O)NCC(=O)N[C@@H](Cc1ccccc1)C(=O)O` (Ac-Q[Cha]DLGF-OH), in experiment [1], the Kd worked out at 313 nM. The deltaG in the experiment with Escherichia coli [2] is -8.9 kcal/mol. The K in the experiment with Escherichia coli [3] is 3.2 10^4/M/s; in the experiment with Escherichia coli [4], 1.1 10^-2/s.

As for `CC(C)C[C@H](NC(=O)[C@@H]1CCCN1C(=O)[C@H](CC(C)C)NC(=O)[C@H](CC(=O)O)N(C)C(=O)[C@H](CC1CCCCC1)NC(=O)[C@H](CCC(N)=O)NC(=O)/C=C/c1cccnc1)C(=O)O` ({Acryloyl(3-(3-pyridyl),E)}-Q[Cha][NMeD]LPL-OH), the Kd in experiment [1] stood at 177 nM. Also, the deltaG in the experiment on Escherichia coli [2] is -9.2 kcal/mol. Besides, the K is 6.3 10^4/M/s in the experiment with Escherichia coli [3] and 1.1 10^-2/s with Escherichia coli [4].

Turning to `CC(=O)N[C@@H](CCC(N)=O)C(=O)N[C@@H](CC1CCCCC1)C(=O)N[C@@H](CC(=O)O)C(=O)N[C@@H](CC(C)C)C(=O)N1CCC[C@H]1C(=O)N[C@@H](CC(C)C)C(=O)O` (Ac-Q[Cha]DLPL-OH), the dissociation constant (Kd) in experiment [1] is 182 nM. For the same compound, in the experiment on Escherichia coli [2], the deltaG was -9.2 kcal/mol. The K in the experiment on Escherichia coli [3] was 5.7 10^4/M/s; in the experiment on Escherichia coli [4] it was 1.1 10^-2/s.

With `CC(C)C[C@H](NC(=O)[C@H](CC(=O)O)NC(=O)[C@H](CC1CCCCC1)NC(=O)[C@H](CCC(N)=O)NC(=O)CNCc1ccccn1)C(=O)N[C@@H](Cc1ccccc1)C(=O)O` (H-[X2]Q[Cha]DLF-OH), in experiment [1], the Kd turned out to be 172 nM. The deltaG in the experiment on Escherichia coli [2] is -9.2 kcal/mol. Besides, the K in the experiment on Escherichia coli [3] is 3.4 10^4/M/s; in the experiment with Escherichia coli [4] it was 5.7 10^-3/s.

Consider `COc1ccc(NC(=O)N[C@@H](CCC(N)=O)C(=O)N[C@@H](CC2CCCCC2)C(=O)N[C@@H](CC(=O)O)C(=O)N[C@@H](CC(C)C)C(=O)N[C@@H](Cc2ccccc2)C(=O)O)cc1` ({NH(4-MeO-phenyl)-CO}-Q[Cha]DLF-OH), for which, in experiment [1], the Kd was 73 nM. Moreover, the deltaG in the experiment with Escherichia coli [2] is -9.8 kcal/mol. Further, the results for the K with Escherichia coli [3] and in the experiment with Escherichia coli [4] were 4 10^4/M/s and 2.8 10^-3/s, respectively.

For the compound `CC(=O)N[C@@H](CCC(N)=O)C(=O)N[C@@H](CC1CCCCC1)C(=O)N[C@@H](CC(=O)O)C(=O)N[C@@H](CC(C)C)C(=O)N[C@H](CO)Cc1ccccc1` (Ac-Q[Cha]DL[Phe(ol)]), in experiment [1], the Kd turned out to be 751 nM. Moreover, the deltaG in the experiment with Escherichia coli [2] was -8.4 kcal/mol. Moreover, the results for the K with Escherichia coli [3] and in the experiment on Escherichia coli [4] were 2.6 10^4/M/s and 1.9 10^-2/s, respectively.

Turning to `CC(=O)N[C@@H](CCC(N)=O)C(=O)N[C@@H](CC1CCCCC1)C(=O)N[C@@H](CC(=O)O)C(=O)N[C@@H](CC(C)C)C(=O)NCC(=O)N[C@@H](CC(C)C)C(=O)O` (Ac-Q[Cha]DLGL-OH), the dissociation constant (Kd) in experiment [1] is 682 nM. The deltaG in the experiment with Escherichia coli [2] is -8.4 kcal/mol. The K in the experiment on Escherichia coli [3] is 2.6 10^4/M/s; in the experiment on Escherichia coli [4], 1.7 10^-2/s.

Consider `CC(C)C[C@H](NC(=O)[C@H](CC(=O)O)NC(=O)[C@H](CC1CCCCC1)NC(=O)[C@H](CCC(N)=O)NC(=O)CNCCCn1ccnc1)C(=O)N[C@@H](Cc1ccccc1)C(=O)O` (H-[N(3-imidazol-1-ylpropyl)Gly]Q[Cha]DLF-OH), for which, in experiment [1], the Kd worked out at 312 nM. The deltaG with Escherichia coli [2] was -8.9 kcal/mol. The K is 4.2 10^4/M/s in the experiment on Escherichia coli [3] and 1.1 10^-2/s with Escherichia coli [4].

`CC(=O)N[C@@H](CCC(N)=O)C(=O)N[C@@H](CC1CCCCC1)C(=O)N[C@@H](CC(=O)O)C(=O)N[C@@H](CC(C)C)C(=O)N1CC(O)C[C@H]1C(=O)N[C@@H](CC(C)C)C(=O)O` (stereo partly drawn) (Ac-Q[Cha]DL[X6]L-OH): the Kd in experiment [1] came to 369 nM. Moreover, the deltaG with Escherichia coli [2] is -8.8 kcal/mol. Besides, the K with Escherichia coli [3] is 4.4 10^4/M/s; in the experiment on Escherichia coli [4] it was 1.7 10^-2/s.

Regarding `CC(=O)N[C@@H](CCC(N)=O)C(=O)N[C@@H](CC1CCCCC1)C(=O)N[C@@H](CC(=O)O)C(=O)N[C@@H](CC(C)C)C(=O)N[C@H](CN)Cc1ccccc1` (Ac-Q[Cha]DL-X4), the Kd in experiment [1] is 877 nM. The deltaG with Escherichia coli [2] was -8.27 kcal/mol. For the same compound, the K with Escherichia coli [3] was 1.2 10^4/M/s; with Escherichia coli [4], 1.1 10^-2/s.

For orientation: Kd means the constant that tells how readily two partners part at equilibrium.
